Non-standard residues stand in square brackets, D forms with d. Residues, ends and D or L forms follow the SMILES beside them. ξ: configuration not given here. *: point of attachment. ξF = NC(Cc1ccccc1)C(=O)O; Cbz = O=C(OCc1ccccc1)*

The first test concerns the target T1, Solute carrier family 12 member 5 (Homo sapiens, UniProt Q9H2X9).
T1 sequence (Q9H2X9 whole entry): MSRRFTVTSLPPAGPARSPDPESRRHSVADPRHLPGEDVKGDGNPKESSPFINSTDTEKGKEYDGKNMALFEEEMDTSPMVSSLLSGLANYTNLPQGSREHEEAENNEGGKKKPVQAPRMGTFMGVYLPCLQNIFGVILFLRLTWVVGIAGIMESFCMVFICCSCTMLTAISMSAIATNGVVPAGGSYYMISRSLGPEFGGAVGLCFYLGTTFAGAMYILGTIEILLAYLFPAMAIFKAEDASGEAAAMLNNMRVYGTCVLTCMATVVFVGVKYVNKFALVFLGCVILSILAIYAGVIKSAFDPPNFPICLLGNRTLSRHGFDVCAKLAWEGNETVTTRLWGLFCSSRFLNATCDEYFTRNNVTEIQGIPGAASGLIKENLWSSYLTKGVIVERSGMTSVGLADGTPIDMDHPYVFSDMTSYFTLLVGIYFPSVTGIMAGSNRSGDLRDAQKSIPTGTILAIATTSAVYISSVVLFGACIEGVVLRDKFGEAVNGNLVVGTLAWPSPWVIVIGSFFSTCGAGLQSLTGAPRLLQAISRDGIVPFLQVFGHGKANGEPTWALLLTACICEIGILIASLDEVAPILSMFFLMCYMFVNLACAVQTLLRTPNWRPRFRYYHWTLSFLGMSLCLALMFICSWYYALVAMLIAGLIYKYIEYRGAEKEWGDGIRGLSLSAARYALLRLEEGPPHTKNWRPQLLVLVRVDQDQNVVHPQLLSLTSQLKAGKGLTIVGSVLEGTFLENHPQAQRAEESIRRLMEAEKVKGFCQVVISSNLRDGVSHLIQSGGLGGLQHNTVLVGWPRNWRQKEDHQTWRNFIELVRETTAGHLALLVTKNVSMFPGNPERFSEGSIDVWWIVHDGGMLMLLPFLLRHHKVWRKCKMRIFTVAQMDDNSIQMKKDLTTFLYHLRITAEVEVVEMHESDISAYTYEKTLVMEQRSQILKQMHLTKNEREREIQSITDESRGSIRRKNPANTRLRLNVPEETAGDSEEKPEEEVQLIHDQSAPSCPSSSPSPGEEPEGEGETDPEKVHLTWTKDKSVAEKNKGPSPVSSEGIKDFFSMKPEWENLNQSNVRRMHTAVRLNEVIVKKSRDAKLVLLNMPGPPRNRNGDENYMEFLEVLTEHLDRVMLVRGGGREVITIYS
Kind of test: KCC2 modulator potency by thallium flux, dose response, cell-based, HEK293 KCC2, FluoZin-2 fluorescence (AID 1736).
Conditions: not given
With `Cc1ccc(NC(=O)c2ccccc2NS(=O)(=O)c2ccc(Cl)s2)cc1` [2-[(5-chloranylthiophen-2-yl)sulfonylamino]-N-(4-methylphenyl)benzamide], the response was half-maximal at 1.07 µM (EC50).

As to `O=C(CSc1nccc(=O)[nH]1)N1CCc2ccccc2C1` [SMR000124078], it took 17.1 µM to reach a half-maximal effect (EC50).

With `O=C(CNC(=O)/C(=C/c1ccccc1)NC(=O)c1ccc(Br)cc1)OCc1ccccc1` [(phenylmethyl) 2-[[(Z)-2-[(4-bromophenyl)carbonylamino]-3-phenyl-prop-2-enoyl]amino]ethanoate], a half-maximal effect (EC50) was put at 2 µM.

As for `O=C(C1CCN(c2nnc(-n3cccc3)s2)CC1)N1CCc2ccccc2C1` [3,4-dihydro-1H-isoquinolin-2-yl-[1-(5-pyrrol-1-yl-1,3,4-thiadiazol-2-yl)-4-piperidyl]methanone], the EC50 stood at 9.6 µM.

In the case of `O=C(O)CC/C(=C\c1ccc(N2CCOCC2)c([N+](=O)[O-])c1)c1nc2ccccc2s1` [(E)-4-(1,3-benzothiazol-2-yl)-5-(4-morpholin-4-yl-3-nitro-phenyl)pent-4-enoic acid], the EC50 was 12.2 µM.

On to `CC(=NNC(=S)Nc1c(C)cccc1C)c1cc2ccccc2o1` [SMR000260555], for which the midpoint of the response, the EC50, lay at 2.79 µM.

`COc1ccc(S(=O)(=O)N(CCc2ccccc2)CC(=O)O)cc1Cl` [2-[(3-chloranyl-4-methoxy-phenyl)sulfonyl-(2-phenylethyl)amino]ethanoic acid] registered an EC50 of 11.9 µM.

Consider `CC1CCN(C(=O)c2ccc(SCc3ccccc3F)c([N+](=O)[O-])c2)CC1` [1-{4-[(2-fluorobenzyl)thio]-3-nitrobenzoyl}-4-methylpiperidine], for which the half-maximal effective concentration (EC50) stood at 42.6 µM.

`CC(C)CCNC(=O)COC(=O)/C=C/c1ccc2ccccc2n1` [(E)-3-(2-quinolinyl)-2-propenoic acid [2-(3-methylbutylamino)-2-oxoethyl] ester] yielded an EC50 of 2.3 µM.

The molecule `O=C(CSc1nnc(-c2ccc(O)cc2)n1Cc1ccco1)N1CCc2ccccc2C1` [1-(3,4-Dihydro-1H-isoquinolin-2-yl)-2-[4-furan-2-ylmethyl-5-(4-hydroxy-phenyl)-4H-[1,2,4]triazol-3-ylsulfanyl]-ethanone] showed an EC50 of 5.59 µM.

The molecule `O=c1c(-c2cnn(-c3ccccc3)c2)coc2cc(O)ccc12` [7-hydroxy-3-(1-phenyl-1H-pyrazol-4-yl)-4H-chromen-4-one] registered an EC50 of 8.92 µM.

For the molecule `Sc1nnc(Cc2c[nH]c3ccccc23)o1` [5-(1H-indol-3-ylmethyl)-1,3,4-oxadiazole-2(3H)-thione], it took 4.45 µM to reach a half-maximal effect (EC50).

Regarding `CC(C)(C)NC(=O)C(c1cccs1)N(CC1CCCO1)C(=O)c1ccc(-c2ccccc2)[nH]1` (stereo not given) [N-[2-(tert-butylamino)-2-oxo-1-thiophen-2-ylethyl]-N-(2-oxolanylmethyl)-5-phenyl-1H-pyrrole-2-carboxamide], the EC50 is 2.31 µM.

`CCOC(=O)c1sc(Nc2nc3c(OC)cccc3s2)nc1C` [SMR000027213] came in with an EC50 of 23.4 µM.

With `O=C(CN1C(=O)NC2(CCCC2)C1=O)Nc1nc(-c2ccc(F)cc2)cs1` [2-(2,4-diketo-1,3-diazaspiro[4.4]nonan-3-yl)-N-[4-(4-fluorophenyl)thiazol-2-yl]acetamide], the 50% effective concentration (EC50) was determined as 0.156 µM.

`Cc1ccc2c(c1)nnn2C1CCN(S(=O)(=O)c2cccc(S(=O)(=O)N(C)C)c2)CC1` [MLS000033642] had an EC50 of 6.91 µM.

In turn, `N#Cc1nc(-c2ccco2)oc1N1CCN(Cc2ccccc2)CC1` [2-(2-furanyl)-5-[4-(phenylmethyl)-1-piperazinyl]-4-oxazolecarbonitrile] gave an EC50 of 12 µM.

Molecule `CCOc1ccc2nc(Sc3cc(O)n(-c4cccc(OC)c4)c3O)sc2c1` [3-(6-Ethoxy-benzothiazol-2-ylsulfanyl)-1-(3-methoxy-phenyl)-pyrrolidine-2,5-dione] registered an EC50 of 11 µM.

Molecule `CN1c2ccccc2Oc2nnc(N3CCN(Cc4ccccc4)CC3)cc21` [3-(4-benzylpiperazin-1-yl)-5-methylpyridazino[3,4-b][1,4]benzoxazine] came in with an EC50 of 1.88 µM.

`COc1cc(C(=S)N2CCOCC2)cc(OC)c1OC(=O)Cc1ccc(F)cc1` [(2,6-dimethoxy-4-morpholin-4-ylcarbothioyl-phenyl) 2-(4-fluorophenyl)ethanoate] gave an EC50 of 3.24 µM.

Turning to `O=C(NN1C(=O)/C(=C/c2nc3ccccc3[nH]2)SC1=S)c1ccccc1Cl` [N-{5-[1-(1H-Benzoimidazol-2-yl)-meth-(Z)-ylidene]-4-oxo-2-thioxo-thiazolidin-3-yl}-2-chloro-benzamide], a half-maximal effect (EC50) was put at 0.128 µM.

`O=C(O)CCn1c(SCc2cccc3ccccc23)nc2ccccc21` [3-[2-(1-naphthalenylmethylthio)-1-benzimidazolyl]propanoic acid] returned an EC50 of 0.677 µM.

Turning to `O=C(CSc1ccc(-c2ccccc2)nn1)N1CCCc2ccccc21` [1-(3,4-dihydro-2H-quinolin-1-yl)-2-(6-phenylpyridazin-3-yl)sulfanyl-ethanone], a half-maximal effect (EC50) was put at 13.5 µM.

Take `COc1ccc(N2C(=S)N=C(Nc3cccc(C)c3)C23CCCCC3)cc1` [1-(4-methoxyphenyl)-4-(3-methylanilino)-1,3-diazaspiro[4.5]dec-3-ene-2-thione]: the EC50 worked out at 14.1 µM.

As to `O=C(CSc1ccccc1C(=O)NCc1ccccc1)NC1CCCCCCC1` [2-[2-(cyclooctylamino)-2-oxidanylidene-ethyl]sulfanyl-N-(phenylmethyl)benzamide], a half-maximal response (EC50) required 1.65 µM.

The molecule `O=S(=O)(NCc1ccccc1)c1ccc(Cl)c(S(=O)(=O)NCc2ccccc2)c1` [1-N,3-N-dibenzyl-4-chlorobenzene-1,3-disulfonamide] gave an EC50 of 1.7 µM.

With `O=C(C=Cc1ccccc1)CC(=O)c1ccccc1O` [MLS000627068], the EC50 stood at 10 µM.

Molecule `CCOC(=O)CNC(=O)C(Cc1ccccc1)NC(=O)OCc1ccccc1` (stereo not given) [2-[[1-oxo-3-phenyl-2-(phenylmethoxycarbonylamino)propyl]amino]acetic acid ethyl ester] (Cbz-[ξF]-Gly-OEt) returned an EC50 of 2.16 µM.

Take `CC[C@H](CO)Nc1nc(Nc2cccc(Cl)c2)c2ncn(C(C)C)c2n1` [(R)-2-(6-(3-chlorophenylamino)-9-isopropyl-9H-purin-2-ylamino)butan-1-ol]: the response was half-maximal at 10.6 µM (EC50).

Staying with this test, now noted: inactive by the depositor's call.
`Cc1ccccc1-c1nc(CS(=O)(=O)CC(=O)N2CCc3ccccc3C2)c(C)o1` [1-(3,4-dihydro-1H-isoquinolin-2-yl)-2-[[5-methyl-2-(2-methylphenyl)-1,3-oxazol-4-yl]methylsulfonyl]ethanone] displayed a concentration giving a half-maximal response (EC50) of 22.1 µM.

The molecule `CC(C)CC(c1nnnn1Cc1cccs1)N1CCN(c2nc3ccccc3s2)CC1` (stereo not given) [2-[4-[3-methyl-1-[1-(2-thenyl)tetrazol-5-yl]butyl]piperazino]-1,3-benzothiazole] returned an EC50 of 46.4 µM.

For `O=C(CCc1ccccc1)NC(=S)Nc1cccc(Br)c1` [MLS000583293], the EC50 came to 296 µM.

`C[C@@H](C(=O)Nc1ccc2ccccc2c1)[C@@H]1C[C@@]1(C)[C@@H](NC(=O)c1cccnc1)c1ccccc1` [MLS000563527] had an EC50 of 16.9 µM.

Molecule `O=C(CSC1=NCCS1)Nc1nc(-c2ccccc2)cs1` [2-(4,5-dihydro-1,3-thiazol-2-ylsulfanyl)-N-(4-phenyl-1,3-thiazol-2-yl)acetamide] showed an EC50 of 1890 µM.

Molecule `COn1c(SC2CCCCC2)nc2ccccc2c1=O` [2-(cyclohexylthio)-3-methoxy-4-quinazolinone] displayed an EC50 of 82.6 µM.

The term EC50 denotes the concentration giving half of the maximal effect.

Source of the values: BindingDB's records for doi:10.7270/Q2M32T6M (Vanderbilt Screening Center for GPCRs, Ion Channels and …, 2009).
